Measurements as given in patent publication US20250346883A1, “DENSITY GRADIENT CHEMOSTAT FOR ADAPTED LABORATORY EVOLUTION” (priority 2022, published 2025).
≈ marks a conversion by molar mass, not a printed value. Where “and” joins values, the source holds several entries; their conditions need not be identical. Identical values can stand only once.

Experiments:
[1] = tested on: Escherichia coli MG1655 ancestor and MICALE-grown samples; experiment: Chaotropic stress adaptation analysis (OD600 growth in increasing MgCl2); assay type: cell-based
Description: (§1) The adaptation analysis (step 205) is a qualitative test to compare the ability to grow in the presence of the stressor between the ancestor and MICALE-grown samples. Turbid broth cultures from isolated colonies were diluted 1:100 in sterile broth with increasing amounts of stressor. These dilutions were vortexed before pipetting 0.2 mL in triplicate onto a 96-well plate. The microplate reader then measured OD600 every 15 minutes over the span of four days while incubating the plate at 37° C. with the plate lid on. […] Referring to FIG. 3B, for each OD600 curve, the maximum rate of growth over a span of 75 minutes is designated the exponential growth rate, u, and the subtracted difference between the maximum and minimum OD600 measurements, AOD, is designated the cell proliferation. The high salinity and chaotropic stress adaptation analyses were completed once whereas the antibiotic analysis was repeated for two total trials. Growth metrics were extrapolated from the growth curves (described below) for numerical comparisons between samples and to fit a logistic dose-response curve of each sample's response in a stressor. For each sample, a logistic curve was fit to the triplicate relative exponential growth rate or relative cell proliferation values across all media types (FIG. 3C). This curve represents a sample's relative response to increasing doses of a stressor, known as a dose-response curve. The value for ED50 is the effective dose of the stressor at which a 50% decrease in the maximal response (100%) is observed.
For the chaotropic stress run, samples from both two weeks and four weeks into the run were selected for analysis (Table 5, below). The samples, including the ancestor, were cultured in media with 0, 200, and 250 mM MgCl2. The IL samples were not plated on 200 mM MgCl2 plates due to limited resources. The ancestor was grown on plates with the same MgCl2 concentration as the samples to see if the culturing process was causing genetic change significant enough to affect the growth phenotypes observed during the adaptation analysis. Cultures were diluted into media with 0, 200, 250 and 300 mM MgCl2 then pipetted onto the 96-well-plate to start the four-day analysis.
(§2) To statistically compare growth between samples, two parameters were extracted from the OD600 curves resulting from the adaptation analysis: relative exponential growth rate and relative cell proliferation (FIG. 3B). To find the exponential growth rate, μ, growth curves are normally fit to a standard sigmoidal function, such as the Gompertz model. However, these OD600 curves were too irregular to be well fit with a standard function. Instead, a rolling regression was fitted onto natural log transformed OD600 curves to produce linear regression lines between six measurements at a time (75 total minutes), shifting by 1 measurement, over the curve. The exponential growth rate from the maximum slope obtained by the rolling regression is 0.44 hr^−1. The darker lines on the upper right section of the curve represent where the maximum slope occurs. (FIG. 4).
(§3) The exponential growth rate was determined to be the maximum slope of any of the regression lines, denoted by μstress for growth curves in media with stressor and μblank for that in blank LB media [Equation 1]. Any slope maxima that appeared to be due from anomalies in the data, such as a quick jump in OD600 after biofilm formation, were filtered out. This ensured that the maximum slope occurred during the time that visually represented exponential growth (near the start of the curve). The triplicate μblank calculations were averaged to obtain the values representing that sample's growth in media without stress, μcontrol [Equation 2]. The percent relative exponential growth rate was obtained by dividing each μ by the μcontrol, then multiplying by 100 [Equation 3]. Finally, the three relative exponential growth rate values for each sample and media type were averaged [Equation 4]. […]

[2] = tested on: Escherichia coli MG1655 ancestor and MICALE-grown samples; experiment: High salinity adaptation analysis (OD600 growth in increasing NaCl); assay type: cell-based
Description: as §1
The samples chosen from the high salinity run were frozen stocks of the PL, SL, and BL samples that had been taken at the end of the run (two weeks) and one SL sample from the first 25 hours (Table 2, below). The samples used in the adaptation analysis had been in media with a NaCl concentration of 60 ppt, and the ancestor was cultured on blank LB media. The samples were diluted into LB media with 5, 45, 60, 75, and 90 ppt NaCl then plated on the 96-well plate.
as §2, §3

[3] = tested on: Escherichia coli MG1655 ancestor and MICALE-grown samples; experiment: Antibiotic stress adaptation analysis (OD600 growth in increasing ciprofloxacin); assay type: cell-based; settings: for relative cell proliferation / relative exponential growth rate: 10×MIC
Description: as §1
The samples chosen for the antibiotic-stress adaptation analysis were from the end of the antibiotic stress MICALE run, sampled on the 14th day (Table 7, below). Samples were cultured grown in media with no antibiotic, 0.6 μg/mL ciprofloxacin (10×MIC,) and 15 μg/mL ciprofloxacin ([…]) were transferred into 5 mL of LB broth with the same amount of antibiotic. The only exception is the BL sample was grown in 0.6 μg/mL ciprofloxacin then transferred to LB broth with 15 μg/mL ciprofloxacin. Once turbid, the broth cultures were diluted into media with no antibiotic, 0.6 μg/mL, 6 μg/mL, and 60 μg/mL ciprofloxacin then pipetted onto a 96-well plate and placed in the microplate reader to start the analysis. A portion of the broth cultures used for the analysis were frozen in glycerol. For a repeat trial of the adaptation analysis, these frozen stocks were revived in broth media matching the level of antibiotic in which they had originally been cultured.
as §2
The exponential growth rate was determined to be the maximum slope of any of the regression lines, denoted by μstress for growth curves in media with stressor and μblank for that in blank LB media [Equation 1]. Any slope maxima that appeared to be due from anomalies in the data, such as a quick jump in OD600 after biofilm formation, were filtered out. This ensured that the maximum slope occurred during the time that visually represented exponential growth (near the start of the curve). […]

Escherichia coli = settings: cited from earlier work
[4] = sample PL-000-Col1, 200 mM MgCl2

## [Cl-].[Cl-].[Mg+2] [MgCl2, magnesium chloride]
[1]; all samples incl. ancestor, 300 mM MgCl2
  growth in 300 mM MgCl2: No samples showed signs of growth
[1]; sample Anc-000, 200 mM MgCl2
  average exponential growth rate (relative): 41.7%
  relative cell proliferation: 74.0%
[1]; sample Anc-000, 250 mM MgCl2
  growth in 250 mM MgCl2: showed signs of growth
[1]; sample Anc-200, 200 mM MgCl2
  average exponential growth rate (relative): 32.0%
  relative cell proliferation: 94.0%
[1]; sample IL-000, 200 mM MgCl2
  average exponential growth rate (relative): 33.5%
  relative cell proliferation: 86.5%
[1]; sample PL-000-Col1, one triplicate well, 200 mM MgCl2
  maximum OD600: 1.479
[1]; [4]
  average exponential growth rate (relative): 54.0%
  relative cell proliferation: 130% and 130.3%
[1]; sample PL-000-Col1, 250 mM MgCl2 (one well)
  growth in 250 mM MgCl2: showed signs of growth
[1]; sample PL-000-Col2, 200 mM MgCl2 (considered as no growth)
  relative cell proliferation: less than 5%
[1]; sample PL-000-Col2, any media with MgCl2
  growth in media with MgCl2: could not grow
[1]; sample PL-200, 200 mM MgCl2
  average exponential growth rate (relative): 26.5%
  relative cell proliferation: 129.3%
[1]; sample SL-W2, 200 mM MgCl2
  average exponential growth rate (relative): 22.2%
  highest average OD600: 1.399
  relative cell proliferation: 140.8%
[1]; sample SL-W4, 200 mM MgCl2
  average exponential growth rate (relative): 42.3%
  relative cell proliferation: 102.2%

## [Cl-].[Na+] [NaCl, sodium chloride]
[2]; sample Ancestor
  decrease of exponential growth rate from 60 to 75 ppt NaCl: 22.9%
[2]; sample Ancestor, 75 ppt NaCl
  relative growth rate: 15.5%
[2]; sample Ancestor, 90 ppt NaCl (no growth)
  average cell proliferation: less than 5%
[2]; sample BL
  increase of exponential growth rate from 60 to 75 ppt NaCl: 7.7%
[2]; sample BL, 60 ppt NaCl
  relative growth rate: 32.5%
[2]; sample BL, 75 ppt NaCl
  relative growth rate: 40.2%
[2]; sample BL, 90 ppt NaCl
  relative growth rate: 42.8%
[2]; sample PL
  decrease of exponential growth rate from 60 to 75 ppt NaCl: 35.0%
[2]; sample PL, 75 ppt NaCl
  relative growth rate: 18.3%
[2]; sample PL, 90 ppt NaCl
  relative growth rate: 25.9%
[2]; sample SLearly
  decrease of exponential growth rate from 60 to 75 ppt NaCl: 28.9%
[2]; sample SLearly, 75 and 90 ppt NaCl (no growth)
  average cell proliferation: less than 5%
[2]; sample SLearly, 75 ppt NaCl
  relative growth rate: 3.1%
[2]; sample SLfinal
  decrease of exponential growth rate from 60 to 75 ppt NaCl: 7.8%
[2]; sample SLfinal, 75 ppt NaCl
  relative growth rate: 19.7%
[2]; sample SLfinal, 90 ppt NaCl
  relative growth rate: 27.0%
[2]; three samples taken at the end of the run (PL, SLfinal, BL), every level of salinity (5-90 ppt NaCl)
  average cell proliferation: over 5%

## O=C(O)c1cn(C2CC2)c2cc(N3CCNCC3)c(F)cc2c1=O [ciprofloxacin]
[3]; Ancestor, any media with ciprofloxacin (10-1000×MIC), both trials
  growth in media with ciprofloxacin: did not show signs of growth
[3]; Trial 1, Ancestor
  concentration at which cell proliferation value of less than 5% was reached (no growth): 10 ×MIC
[3]; Trial 1, sample BL-15
  concentration at which cell proliferation value of less than 5% was reached (no growth): 1000 ×MIC
[3]; Trial 1, sample IL-00
  concentration at which cell proliferation value of less than 5% was reached (no growth): 100 ×MIC
[3]; Trial 1, sample IL-00, 100×MIC
  average cell proliferation: 0.6%
[3]; Trial 1, sample IL-00, 1000×MIC (likely evaporation, not growth)
  average cell proliferation: 5.3%
[3]; Trial 1, sample IL-15-Col1
  concentration at which cell proliferation value of less than 5% was reached (no growth): 1000 ×MIC
[3]; Trial 1, sample IL-15-Col1, 100×MIC
  relative growth rate: 54.4%
[3]; Trial 1, sample IL-15-Col2
  concentration at which cell proliferation value of less than 5% was reached (no growth): 1000 ×MIC
  relative cell proliferation: 61.5%
  relative exponential growth rate: 107.5%
[3]; Trial 1, sample PL-00
  concentration at which cell proliferation value of less than 5% was reached (no growth): 10 ×MIC
[3]; Trial 1, sample PL-0.6
  concentration at which cell proliferation value of less than 5% was reached (no growth): 100 ×MIC
[3]; Trial 1, sample SL-15, all concentrations (10-1000×MIC)
  cell proliferation values: over 5%
[3]; Trial 2, Anc
  concentration at which average cell proliferation lower than 5% was reached: 10 ×MIC
[3]; Trial 2, sample BL-15
  relative exponential growth rate: 97.2%
[3]; Trial 2, sample BL-15, 100×MIC
  relative growth rate: 66.6%
[3]; Trial 2, sample IL-00
  concentration at which average cell proliferation lower than 5% was reached: 100 ×MIC
[3]; Trial 2, sample IL-15-Col1
  relative exponential growth rate: 90.5%
[3]; Trial 2, sample IL-15-Col2
  concentration at which average cell proliferation lower than 5% was reached: 1000 ×MIC
  relative cell proliferation: 90.9%
  relative exponential growth rate: 101.6%
[3]; Trial 2, sample PL-00
  concentration at which average cell proliferation lower than 5% was reached: 100 ×MIC
[3]; Trial 2, sample PL-0.6
  concentration at which average cell proliferation lower than 5% was reached: 100 ×MIC
[3]; Trial 2, sample SL-15
  relative exponential growth rate: 90.6%
[3]; Trial 2, samples IL-15-Col1, SL-15 and BL-15, 1000×MIC (growth in all levels tested)
  average cell proliferation: above 5%
[3]; samples IL-15-Col1, IL-15-Col2, SL-15 and BL-15, both trials
  growth (OD600 curves) in ciprofloxacin: had OD600 curves in ciprofloxacin up to 100×MIC
[3]; samples PL-00, PL-0.6 and IL-00, overall, both trials
  growth in 100 or 1,000×MIC: could not grow
Escherichia coli
  MIC, literature's value: 0.05 µg/mL (≈ 0.151 µM)
